Source: PMC8880385 (Pharmaceuticals, 2022)

Legend:
Loa loa mf = assay: Loa loa microfilariae motility counter-screen; format: cell-based; conditions: for inhibition at 10 µM: Loa loa, 120 h, Day 5
Description: (§1) To assess the effects of the compounds on O. ochengi mf, the mf were harvested from infected cow skin and cultured (10–15 mf per well) in 100 µL media in 96-well plates with a confluent feeder layer of monkey kidney epithelial cells (MK2) as previously described. […] All compounds were also counter-screened with L. loa mf collected from infected individuals with approval from the University of Buea (IRB approval # 964-19). Mf were separated from blood cells using a Percoll gradient as previously described and set up for assays (10–15 mf per well).

O. volvulus pre-adult L5 [1] = assay: O. volvulus pre-adult (Ov L5) motility assay; format: cell-based, Onchocerca volvulus; conditions: Onchocerca volvulus
Description: O. volvulus adult male and female worms, which can only be obtained from infected individuals, are not readily accessible for ex vivo studies. Moreover, since there is no small animal model that can maintain infections by O. volvulus, a recently developed in vitro system was used to evaluate the macrofilaricidal effects on pre-adult worms. All compounds except for 04 were tested in this O. volvulus pre-adult/L5 motility and viability assay.
(§2) Briefly, Ov L3 larvae were cultured to the pre-adult/L5 stage in vitro as described by Voronin et al., 2019 [45]. Once larvae reached the L5 stage (after at least 70 days in culture), 8–10 Ov L5 were moved to new transwell inserts in a 24-well plate containing 0.5 mL Ov L4-CMS media seeded with a 3 × 10^4/well Human Umbilical Vein Endothelial Cells (HUVEC) monolayer. Duplicate wells were treated with 1 and/or 10 µM of compound. Ov L5 were exposed to compounds for 14 days (exchanged 50% of media with fresh compound every two days) and then cultured with new media without compound, exchanging 50% of media every 2–3 days, up to day 36. Control Ov L5 were treated with 0.05% DMSO. Concentrations were chosen based on activity in the B. pahangi female motility assay. Motility was assessed visually and ranked on a 0–100% scale every 2–3 days over the course of the assay. At the end of the motility assay, Ov L5 viability was measured by 3-(4,5-dimethylthiazol-2-yl)-2,5-diphenyltetrazolium bromide (MTT) assay. Ov L5 were incubated with 0.1% MTT in PBS at 37 °C for 1 h then visually inspected for blue coloration indicating MTT reduction. Worms were considered dead if <50% of the worm was stained blue, and worms were considered alive if >50% of the worm was stained blue.

O. ochengi adult females = assay: O. ochengi adult female viability (MTT) assay; format: cell-based; conditions: Onchocerca ochengi, 168 h; Day 7, MTT; read-out: O. ochengi Adult Females Inhibition of Survival Day 7 IC50
Text: (§3) As humans are the only hosts for O. volvulus which are unavailable for screening, drug discovery relies on the surrogate filarial parasites Brugia spp. and cattle Onchocerca spp. Prioritized compounds from the Brugia worm screens were further tested with female and male adult O. ochengi as well as O. ochengi and L. loa mf.
(§4) For these assays, O. ochengi adults were extracted from the subcutaneous nodules of infected cow skins purchased from the local slaughterhouse (Douala, Littoral Region, Cameroon) and incubated in 4 mL complete culture media comprised of RPMI-1640 (Sigma-Aldrich), 5% newborn calf serum, 200 units/mL penicillin, 200 μg/mL streptomycin and 2.5 μg/mL amphotericin B (Sigma-Aldrich) in 12-well plates overnight to validate sterility prior to the assays. Four to eight O. ochengi adult masses were treated individually the following day with a serial dilution of each compound, and controls were treated with 1% DMSO. While in culture, the male worms normally egress from the nodules into the surrounding media and thus can be monitored in parallel for motility. The O. ochengi adult masses were incubated at 37 °C with 5% CO2 for the duration of the assay. Male motility within each well was visually scored every day and over 5 days after compound addition, and female viability within the nodules was assessed by MTT after 7 days as previously described. The O. ochengi adult masses containing female worms were individually placed in wells of a 48-well plate with 0.5 mL of 0.5 mg/mL MTT in PBS and incubated at 37 °C for 30 min. […] Prism 4.0 for Windows was used to calculate IC50s.

[2] = tested on: Brugia pahangi adult females; assay: In vitro motility assay with adult female Brugia pahangi (Worminator); conditions: for inhibition at 1 µM / IC50: Brugia pahangi, 72 h; for inhibition at 1 µM: read-out: Brugia Adult Females Inhibition of Motility Day 3 @ 1 µM, 1 µM, Day 3; for IC50: read-out: Brugia Adult Females Inhibition of Motility Day 3 IC50
O. ochengi mf = assay: O. ochengi microfilariae motility assay; format: cell-based, Onchocerca ochengi; conditions: 10 µM; for inhibition at 10 µM: Onchocerca ochengi, 120 h, Day 5
Description: as §1

in vitro = conditions: dog, MDCK-MDR1
Description: Permeability assays were conducted using 5 µM of each test compound with digoxin as a control. […] electrical resistance was used to verify the integrity of the MDCK-MDR1 monolayer. After compound addition, plates were incubated at 37 °C with 5% CO2 for 1 h. Samples were analyzed by LC–MS/MS and net flux ratio was calculated using basal-to-apical and apical-to-basal permeability.

[3] = Gerbil liver microsome stability assay; format: in vitro ADME; conditions: for CLint: gerbil liver microsomes; for half-life at 1 µM: pH 7.4, 1 µM compound, 0.5 mg/mL microsomes, read-out: Gerbil Liver Microsome T1/2
Description: Microsomal stability was tested using 1 µM of each test compound in a 96-well plate containing 0.5 mg/mL gerbil liver microsomes, 1 mM NADPH and/or UDPGA with alamethicin in a buffer of 100 mM potassium phosphate with 3 mM magnesium chloride at pH 7.4. Verapamil was used as a positive control. Reactions were incubated at 37 °C, and 100% acetonitrile with 0.1% formic acid was added at 0, 15, 30 and 60 min timepoints to stop the reaction. Samples were then separated over a Waters Atlantis T3 dC18 reverse phase HPLC column with 0.1% formic acid in water and 0.1% formic acid in acetonitrile. Samples were analyzed using an AB Sciex API 4000 LC–MS/MS.

O. ochengi adult males = assay: O. ochengi adult male motility assay; format: cell-based; conditions: Onchocerca ochengi, 120 h; for IC50: read-out: O. ochengi Adult Males Inhibition of Motility Day 5 IC50; for inhibition at 10 µM: single concentration 10 µM, read-out: O. ochengi Adult Males Inhibition of Motility Day 5
Text: as §3
as §4, with “min. Female viability was visually rated by the degree of formazan production (live worms have blue coloration) in the female worm within the treated nodule versus control worm masses.” for “min.”

O. volvulus pre-adult L5 [4] = assay: Ov L5 viability by endpoint MTT assay; format: cell-based, Onchocerca volvulus; conditions: 1 µM
Description: as §2, with “Concentrations were chosen based on activity in the B. pahangi female motility assay.” left out

[5] = Day 36 @ 1 µM, 14 days drug then washout

SMILES: Cc1ccc2c(ccc(/C=C/c3cc(C)n(-c4ccccc4)c3C)[n+]2C)c1.[I-] [Analog 02, 2-[(E)-2-(2,5-dimethyl-1-phenyl-1H-pyrrol-3-yl)ethenyl]-1,6-dimethylquinolin-1-ium iodide]
- Loa loa Mf Inhibition of Motility Day 5 @ 10 µM (Loa loa mf): completely inhibited
- inhibition at 10 µM (Loa loa mf): 100%
- inhibition at 1 µM (O. volvulus pre-adult L5 [1]; 384 h, Day 16 @ 1 µM, assay stopped on day 16 (contamination)): 90%
- inhibition at 1 µM (O. volvulus pre-adult L5 [1]; [5]): > 90%
- IC50 (O. ochengi adult females): 700 nM
- Brugia Adult Females Inhibition of Motility Day 3 @ 1 µM [2]: 83%
- inhibition at 1 µM [2]: > 70%
- IC50 [2]: 1 nM
- Brugia Adult Females Inhibition of Motility Day 3 IC50 [2]: sub-micromolar range
- O. ochengi Mf Inhibition of Motility Day 5 @ 10 µM (O. ochengi mf): completely inhibited
- inhibition at 10 µM (O. ochengi mf): 100%
- Papp A→B (in vitro): 0.1 ×10⁻⁶ cm/s
- Papp B→A (in vitro): 51.2 ×10⁻⁶ cm/s
- CLint [3]: 541.8 µL/min/mg Protein
- half-life at 1 µM [3]: 2.6 min
- IC50 (O. ochengi adult males): 3080 nM

SMILES: Cc1c(/C=C/c2ccc3ccccc3[n+]2C)cnn1-c1ccccc1.[I-] [Analog 03, 1-methyl-2-[(E)-2-(5-methyl-1-phenyl-1H-pyrazol-4-yl)ethenyl]quinolin-1-ium iodide]
- Loa loa Mf Inhibition of Motility Day 5 @ 10 µM (Loa loa mf): little to no effect
- inhibition at 10 µM (Loa loa mf): 13%
- inhibition at 10 µM (O. volvulus pre-adult L5 [1]; 672 h, Day 28 @ 10 µM): 97%
- IC50 (O. ochengi adult females): 5180 nM
- inhibition at 1 µM [2]: 3%
- O. ochengi Mf Inhibition of Motility Day 5 @ 10 µM (O. ochengi mf): little to no effect
- inhibition at 10 µM (O. ochengi mf): 0%
- Papp A→B (in vitro): 1.3 ×10⁻⁶ cm/s
- Papp B→A (in vitro): 9.1 ×10⁻⁶ cm/s
- CLint [3]: 280.2 µL/min/mg Protein
- half-life at 1 µM [3]: 4.9 min
- IC50 (O. ochengi adult males): 1540 nM

SMILES: Cc1cc(/C=C/c2ccc3ccccc3[n+]2C)c(C)n1-c1ccccc1.[I-] [Analog 01, 2-[(E)-2-(2,5-dimethyl-1-phenyl-1H-pyrrol-3-yl)ethenyl]-1-methylquinolin-1-ium iodide]
- Loa loa Mf Inhibition of Motility Day 5 @ 10 µM (Loa loa mf): completely inhibited
- inhibition at 10 µM (Loa loa mf): 100%
- inhibition at 1 µM (O. volvulus pre-adult L5 [1]; [5]): > 90%
- IC50 (O. ochengi adult females): 790 nM
- Brugia Adult Females Inhibition of Motility Day 3 @ 1 µM [2]: 99%
- IC50 [2]: 8 nM
- Brugia Adult Females Inhibition of Motility Day 3 IC50 [2]: sub-micromolar range
- O. ochengi Mf Inhibition of Motility Day 5 @ 10 µM (O. ochengi mf): completely inhibited
- inhibition at 10 µM (O. ochengi mf): 100%
- Papp A→B (in vitro): 0.1 ×10⁻⁶ cm/s
- Papp B→A (in vitro): 61.3 ×10⁻⁶ cm/s
- CLint [3]: 610.8 µL/min/mg Protein
- half-life at 1 µM [3]: 2.3 min
- IC50 (O. ochengi adult males): 960 nM
- O. volvulus L5 % inhibition of viability Day 37 (MTT assay) (O. volvulus pre-adult L5 [4]): 87%

SMILES: C[n+]1c(/C=C/c2cnn(-c3ccccc3)c2)ccc2ccccc21.[I-] [Analog 04, 1-methyl-2-[(E)-2-(1-phenyl-1H-pyrazol-4-yl)ethenyl]quinolin-1-ium iodide]
- Loa loa Mf Inhibition of Motility Day 5 @ 10 µM (Loa loa mf): little to no effect
- inhibition at 10 µM (Loa loa mf): 38%
- inhibition at 1 µM [2]: 26%
- O. ochengi Mf Inhibition of Motility Day 5 @ 10 µM (O. ochengi mf): little to no effect
- inhibition at 10 µM (O. ochengi mf): 0%
- inhibition at 10 µM (O. ochengi adult males): 100%

SMILES: Cc1nn(-c2ccccc2)c(C)c1/C=C/c1ccc2ccccc2[n+]1C.[I-] [Analog 05, 2-[(E)-2-(3,5-dimethyl-1-phenyl-1H-pyrazol-4-yl)ethenyl]-1-methylquinolin-1-ium iodide]
- Loa loa Mf Inhibition of Motility Day 5 @ 10 µM (Loa loa mf): little to no effect
- inhibition at 10 µM (Loa loa mf): 38%
- inhibition at 1 µM (O. volvulus pre-adult L5 [1]; [5]): > 90%
- Brugia Adult Females Inhibition of Motility Day 3 @ 1 µM [2]: 81%
- inhibition at 1 µM [2]: > 70%
- IC50 [2]: 405 nM
- Brugia Adult Females Inhibition of Motility Day 3 IC50 [2]: sub-micromolar range
- O. ochengi Mf Inhibition of Motility Day 5 @ 10 µM (O. ochengi mf): little to no effect
- inhibition at 10 µM (O. ochengi mf): 0%
- Papp A→B (in vitro): 0.7 ×10⁻⁶ cm/s
- Papp B→A (in vitro): 6.8 ×10⁻⁶ cm/s
- CLint [3]: 179.88 µL/min/mg Protein
- half-life at 1 µM [3]: 7.7 min
- inhibition at 10 µM (O. ochengi adult males): 86%
- O. volvulus L5 % inhibition of viability Day 37 (MTT assay) (O. volvulus pre-adult L5 [4]): 76%
